Measured values published in patent US20080261911A1, “Uses of diphenyl/diphenylamine carboxylic acids” (priority 2006, published 2008).

Assays:
[1] = system: Sp protein binding to GC-rich VEGF promoter oligonucleotide; assay: Gel mobility shift of nuclear extracts from Panc-1 cells with VEGF32P; type: cell-based; conditions: nuclear extracts of Panc-1 cells treated with 50 μM for 48 hr
Procedure: Vascular endothelial growth factor and VEGFR1 oligonucleotides are synthesized and annealed, and 5 pmol aliquots are 5′-end-labeled using T4 kinase and [y-^32P]ATP. After the reaction sample was incubated 20 min on ice, and antibodies against Sp1, Sp3, and Sp4 proteins are added and incubated another 20 min on ice. Protein-DNA complexes are resolved by 5% polyacrylamide gel electrophoresis as previously described (Abdelrahim et al, 2004; Abdelrahim et al, 2005, Abdelrahim et al, submitted 2005).
Panc1 or L3.6pl cells were treated with DMSO, 50 μM tolfenamic acid or 50 μM ampiroxicam for 48 hr. Nuclear extracts from these cells were isolated, incubated with VEGF^32P and analyzed in gel mobility shift assays.
The radiolabeled oligonucleotide contained a GC-rich region (−66 to −47) from the VEGF promoter that binds Sp proteins.

[2] = system: VEGFR1; assay: VEGFR1 protein expression in Panc-1 cells (Western blot, immunostaining); type: cell-based; conditions: 50 μM, 48 h
Procedure: FIGS. 14A-14D show tolfenamic acid decreases expression of Sp and VEGFR1 proteins in pancreatic cancer cells. Tolfenamic acid effects on Panc-1 cells (FIG. 14A and FIG. 14B), and L3.6pl cells (FIG. 14C and FIG. 14D). Cells were treated with DMSO, 50 μM tolfenamic acid, or 50 μM ampiroxicam for 48 h, and whole cell lysates were analyzed by Western blot analysis. […] FIGS. 16A-16D show the interaction of Sp proteins with VEGFR1 promoter sequences. […] The specific Sp protein bands and antibody supershifted complexes are indicated with arrows. Effects of tolfenamic acid on VEGFR1 and Egr-1 protein expression in Panc-1 cells (FIG. 16C), and L3.6pl cells (FIG. 16D). […] Cells are washed once with phosphate buffered saline PBS and collected by scraping in 200 μL of lysis buffer [50 mM HEPES, 0.5M sodium chloride, 1.5 mM magnesium chloride, 1 mM EGTA, 10% (v/v) glycerol, 1% Triton X-100, 5 μL/ml of Protease Inhibitor Cocktail (Sigma)]. The lysates from the cells are incubated on ice for 1 hr with intermittent vortexing followed by centrifugation at 40,000 g for 10 min at 4° C. […] Samples are electrophoresed, transferred to membranes, and proteins detected by incubation with polyclonal primary antibodies Sp1, Sp3, Sp4, HDAC, VEGF (a-20), c-Met, surviving, VEGF, cleaved PARP, and β-tubulin (H-235) followed by blotting with appropriate horseradish peroxidase-conjugated secondary antibody as previously described (Abdelrahim et al, 2004). After autoradiography, band intensities are determined by a scanning laser densitometer (Sharp Electronics Corporation, Mahwah, N.J.) using ZERO-D […] software (Scanalytics Corporation, Billerica, Mass.).

[3] = system: VEGFR1; assay: VEGFR1 protein expression in L3.6pl cells (Western blot); type: cell-based, human; conditions: 50 μM, 48 h
Procedure: FIGS. 14A-14D show tolfenamic acid decreases expression of Sp and VEGFR1 proteins in pancreatic cancer cells. Tolfenamic acid effects on Panc-1 cells (FIG. 14A and FIG. 14B), and L3.6pl cells (FIG. 14C and FIG. 14D). Cells were treated with DMSO, 50 μM tolfenamic acid, or 50 μM ampiroxicam for 48 h, and whole cell lysates were analyzed by Western blot analysis. […] FIGS. 16A-16D show the interaction of Sp proteins with VEGFR1 promoter sequences. […] The specific Sp protein bands and antibody supershifted complexes are indicated with arrows. Effects of tolfenamic acid on VEGFR1 and Egr-1 protein expression in Panc-1 cells (FIG. 16C), and L3.6pl cells (FIG. 16D). […] Samples are electrophoresed, transferred to membranes, and proteins detected by incubation with polyclonal primary antibodies Sp1, Sp3, Sp4, HDAC, VEGF (a-20), c-Met, surviving, VEGF, cleaved PARP, and β-tubulin (H-235) followed by blotting with appropriate horseradish peroxidase-conjugated secondary antibody as previously described (Abdelrahim et al, 2004). After autoradiography, band intensities are determined by a scanning laser densitometer (Sharp Electronics Corporation, Mahwah, N.J.) using ZERO-D […] software (Scanalytics Corporation, Billerica, Mass.).

[4] = system: VEGFR1 promoter; assay: VEGFR1 promoter (pVEGFR1A-C) luciferase activity in Panc-1 cells; type: cell-based; conditions: 50 μM
Procedure: FIGS. 17A-17D show effects of tolfenamic acid on the VEGFR1 promoter and mRNA expression. Transfection with pVEGFR1-A (FIG. 17A), pVEGFR1-B (FIG. 17B), and pVEGFR1-C (FIG. 17C). Panc-1 cells were transfected with pVEGFR1 constructs, treated with DMSO, 50 μM ampiroxicam, or 50 μM tolfenamic acid, and luciferase activity was determined as described in Materials and Methods. […] Results are shown for a single experiment and similar data was obtained in replicate experiments. Cells are cultured in 6-well plates in 2 ml of DME/F12 medium supplemented with 5% fetal bovine serum. After 16-20 hr when cells are 50-60% confluent, reporter gene constructs are transfected using LIPOFECTAMINE™ reagent (Invitrogen, Carlsbad, Calif.). The effects of the selective non-steroidal anti-inflammatory drugs on transactivation are investigated in Panc1 and L3.6pl cells co-transfected with different VEGF constructs (500 ng). […] For proteasome inhibitor experiments, cells will be co-treated with 2 μM lactacystin, and for electrophoretic mobility shift assay (EMSA), nuclear extracts from Panc1 and L3.6pl cells are isolated as described, and aliquots will be stored at −80° C. until used (Abdelrahim et al, 2004; Abdelrahim et al, 2005).

[5] = system: Panc-1 cells; assay: Panc-1 cell migration (scratch) assay on collagen IV-coated plates; type: cell-based; conditions: 50 μM; for VEGF-B-induced cell migration: VEGF-B 50 ng/ml, 16 h
Procedure: Cells were pretreated with DMSO, 50 μM ampiroxicam, or 50 μM tolfenamic acid for 36 hr; VEGF-B (50 ng/ml) was added for 5 or 10 min, and whole cell lysates were obtained and analyzed by Western blot. Cell migration assay (FIG. 18C). […] Immunostaining of pancreatic tumors (FIG. 18D). Pancreatic tumors from athymic nude mice treated with solvent (control), gemcitabine (50 mg/kg), or tolfenamic acid (25 and 50 mg/kg) (Dick, 1996) were stained with VEGFR1 antibodies as described below and in a previous report (Dick, 1996).
Panc-1 cells were pretreated with DMSO, 50 μM ampiroxicam, or 50 μM tolfenamic acid for 48 h, and then were treated with VEGF-B (50 ng/ml) for 5 and 10 min. MAPK phosphorylation in the various treatment groups was then determined by western immunoblot analysis as described above. For migration assays, Panc-1 cells were seeded in triplicate in six-well collagen IV coated plates and then treated with the selected non-steroidal anti-inflammatory drugs for 24 h before the scratch was made. A scratch through the central axis of the plate was gently made using a sterile pipette tip. Cells were 70% confluent when the scratch was made. […] Results of this study were obtained at a 16 h time point and one plate was stained using DIFF QUIK (Dade Behring, Newark, Del.).
Previous studies have reported that activation of VEGFR1 by VEGF-B in pancreatic cancer cells results in enhanced phosphorylation of MAPK and increased cell migration and invasion. […] The importance of Sp protein in VEGFR1-dependent Panc-1 cell migration was determined using a cell migration assay on collagen IV-coated plates.

[6] = system: Egr-1 protein; assay: Egr-1 protein expression in Panc-1 cells, Western blot; type: cell-based; conditions: 50 μM, 48 h
Procedure: Cells are washed once with phosphate buffered saline PBS and collected by scraping in 200 μL of lysis buffer [50 mM HEPES, 0.5M sodium chloride, 1.5 mM magnesium chloride, 1 mM EGTA, 10% (v/v) glycerol, 1% Triton X-100, 5 μL/ml of Protease Inhibitor Cocktail (Sigma)]. The lysates from the cells are incubated on ice for 1 hr with intermittent vortexing followed by centrifugation at 40,000 g for 10 min at 4° C. Equal amounts of protein (60 μg) from each treatment group are diluted with loading buffer, boiled and loaded onto 10 and 12.5% SDS-polyacrylamide gel. For vascular endothelial growth factor immunoblots, 100 μg of protein are used. Samples are electrophoresed, transferred to membranes, and proteins detected by incubation with polyclonal primary antibodies Sp1, Sp3, Sp4, HDAC, VEGF (a-20), c-Met, surviving, VEGF, cleaved PARP, and β-tubulin (H-235) followed by blotting with appropriate horseradish peroxidase-conjugated secondary antibody as previously described (Abdelrahim et al, 2004). After autoradiography, band intensities are determined by a scanning laser densitometer (Sharp Electronics Corporation, Mahwah, N.J.) using ZERO-D SCANALYTICS software (Scanalytics Corporation, Billerica, Mass.).
The proximal region of the VEGFR1 promoter contains GC-rich and Egr-1 sites. […]

SMILES	Sp3 and Sp1/Sp4 retarded bands with VEGF32P [1]	VEGFR1 immunostaining [2]	VEGFR1 protein levels, Western blot [2]	VEGFR1 protein levels, Western blot [3]	luciferase activity, pVEGFR1A, pVEGFR1B and pVEGFR1C [4]	cell migration in the absence of VEGF-B ([5]; 16 h time point, DMSO set at 100%)	VEGF-B-induced cell migration [5]	Egr-1 protein [6]
Cc1c(Cl)cccc1Nc1ccccc1C(=O)O [tolfenamic acid]	retarded bands were decreased	decreased VEGFR1 staining	decreased VEGFR1 protein levels	decreased VEGFR1 protein levels	decreased luciferase activity	only significantly inhibited by tolfenamic acid	significantly inhibited VEGF-B-induced cell migration	unchanged in all treatment groups
CCOC(=O)OC(C)OC1=C(C(=O)Nc2ccccn2)N(C)S(=O)(=O)c2ccccc21 (stereo not drawn) [ampiroxicam]	retarded bands of similar intensity	VEGFR1 immunostaining was observed	only the latter compound decreased VEGFR1 protein levels	only the latter compound decreased VEGFR1 protein levels	but not DMSO or ampiroxicam, decreased luciferase activity		inactive in all assays	unchanged in all treatment groups
